According to patent US10519151B2, “Substituted [1,2,4]triazolo[4,3-A]pyridines, their preparation and their use as pharmaceuticals” (NEOMED Institute, priority 2016, dated 2019):

system: human C-Myc gene transcription in MV-4-11 cells; assay: Transcription of human C-Myc in human leukemic MV-4-11 cells (QuantiGene 2.0 assay); format: cell-based; details: MV4-11, 4 hours treatment, C-Myc mRNA by QuantiGene 2.0, read-out: IC50 (inhibition of C-Myc transcription)
Experimental: Transcription of Human C-Myc in Human Leukemic MV-4-11 Cells
The effect of compounds on transcription of human C-Myc gene is monitored in human B-myelomonocytic leukemia cell line MV-4-11 (from American Type Culture Collection (ATCC), Manassas, Va., USA) using QuantiGene 2.0 assay kit (Affymetrix, Santa Clara, Calif., USA).
Typically, 8,000 MV-4-11 cells are plated in sterile 96-well plates (Costar #3598 from Fisher Scientific Canada, Ottawa, Ontario, Canada) in Iscove's medium supplemented with 10% fetal bovine serum, glutamine (2 mM), and penicillin (100 I.U.) and streptomycin (100 μg/mL) (all from Wisent Inc., St. Bruno, Quebec, Canada). Compounds are dissolved in DMSO at 30 mM. A series of 1:3 dilutions are first made in DMSO, and further […] dilutions are made in serum-containing cell culture media. The final concentration of DMSO is 0.1% in cell culture media. After cells are treated with various concentrations of test compound for 4 hours, cells are lysed using Quantigene 2.0 sample processing kit (#QS0100). C-Myc mRNA is detected using a QuantiGene 2.0 assay kit (#QS0009) with gene-specific probe to human C-Myc (#SA-50182) following the manufacturer's recommendations. Luminescence signals are read on Flexstation II microplate reader (Molecular Devices, Sunnyvale, Calif., USA).

Question: Which IC50 does the source give for `Cc1cc(-c2ccc3nnc(Cc4ccccc4)n3c2)cn(C)c1=O` [Compound 1, 5-(3-benzyl-[1,2,4]triazolo[4,3-a]pyridin-6-yl)-1,3-dimethyl-pyridin-2-one] here?
Answer: The IC50 was 253 nM.

Question: Which IC50 does the source give for `Cc1cc(-c2ccc3nnc(CC4CCOCC4)n3c2)cn(C)c1=O` [Compound 2] here?
Answer: Its IC50 is 2340 nM.

Question: With `Cc1cc(-c2ccc3nnc(Cc4ccc(F)cc4)n3c2)cn(C)c1=O` [Compound 3, 5-[3-[(4-fluorophenyl)methyl]-[1,2,4]triazolo[4,3-a]pyridin-6-yl]-1,3-dimethyl-pyridin-2-one] as the molecule, how does the IC50 read?
Answer: Its IC50 is 495 nM.

Question: How did the IC50 turn out when `Cc1cc(-c2ccc3nnc(Cc4ccc(Cl)cc4)n3c2)cn(C)c1=O` [Compound 4, 5-[3-[(4-chlorophenyl)methyl]-[1,2,4]triazolo[4,3-a]pyridin-6-yl]-1,3-dimethyl-pyridin-2-one] was run?
Answer: The IC50 was 156 nM.

Question: With `Cc1cc(-c2ccc3nnc(Cc4cccc(C(F)(F)F)c4)n3c2)cn(C)c1=O` [Compound 5, 1,3-dimethyl-5-[3-[[3-(trifluoromethyl)phenyl]methyl]-[1,2,4]triazolo[4,3-a]pyridin-6-yl]pyridin-2-one] as the molecule, how does the IC50 read?
Answer: The IC50 was 146 nM.

Question: Which IC50 does the source give for `Cc1cc(-c2ccc3nnc(Cc4ccccc4F)n3c2)cn(C)c1=O` [Compound 6, 5-[3-[(2-fluorophenyl)methyl]-[1,2,4]triazolo[4,3-a]pyridin-6-yl]-1,3-dimethyl-pyridin-2-one] here?
Answer: Its IC50 is 461 nM.

Question: `Cc1cc(-c2ccc3nnc([C@@H](C)c4ccccc4)n3c2)cn(C)c1=O` [Compound 7, 1,3-dimethyl-5-[3-[(1 S)-1-phenylethyl]-[1,2,4]triazolo[4,3-a]pyridin-6-yl]pyridin-2-one] was tested. Which IC50 did it give?
Answer: The IC50 was 85 nM.

Question: With `Cc1cc(-c2ccc3nnc(CC4CCCCC4)n3c2)cn(C)c1=O` [Compound 8, 5-[3-(cyclohexylmethyl)-[1,2,4]triazolo[4,3-a]pyridin-6-yl]-1,3-dimethyl-pyridin-2-one] as the molecule, how does the IC50 read?
Answer: Its IC50 is 158 nM.

Question: How did the IC50 turn out when `Cc1cc(-c2ccc3nnc(Cc4cc(F)cc(F)c4)n3c2)cn(C)c1=O` [Compound 9, 5-[3-[(3,5-difluorophenyl)methyl]-[1,2,4]triazolo[4,3-a]pyridin-6-yl]-1,3-dimethyl-pyridin-2-one] was run?
Answer: The IC50 was 183 nM.

Question: `Cc1cc(-c2ccc3nnc(Cc4ccc(C(F)(F)F)cc4)n3c2)cn(C)c1=O` [Compound 10, 1,3-dimethyl-5-[3-[[4-(trifluoromethyl)phenyl]methyl][1,2,4]triazolo[4,3-a]pyridin-6-yl]pyridin-2-one] was tested. Which IC50 did it give?
Answer: The IC50 was 484 nM.

Question: With `Cc1cc(-c2ccc3nnc(C4(c5ccccc5)CC4)n3c2)cn(C)c1=O` [Compound 11, 1,3-dimethyl-5-[3-(1-phenylcyclopropyl)-[1,2,4]triazolo[4,3-a]pyridin-6-yl]pyridin-2-one] as the molecule, how does the IC50 read?
Answer: Its IC50 is 90 nM.

Question: With `Cc1cc(-c2ccc3nnc([C@H](C)c4ccccc4)n3c2)cn(C)c1=O` [Compound 12, 1,3-dimethyl-5-[3-[(1R)-1-phenylethyl]-[1,2,4]triazolo[4,3-a]pyridin-6-yl]pyridin-2-one] as the molecule, how does the IC50 read?
Answer: Its IC50 is 100 nM.

Question: How did the IC50 turn out when `Cc1cc(-c2ccc3nnc(Cc4cccc(F)c4)n3c2)cn(C)c1=O` [Compound 13, 5-[3-[(3-fluorophenyl)methyl]-[1,2,4]triazolo[4,3-a]pyridin-6-yl]-1,3-dimethyl-pyridin-2-one] was run?
Answer: The IC50 was 269 nM.

Question: For `Cc1cc(-c2ccc3nnc(C4(c5cccc(Cl)c5)CC4)n3c2)cn(C)c1=O` [Compound 14, 5-[3-[1-(3-chlorophenyl)cyclopropyl]-[1,2,4]triazolo[4,3-a]pyridin-6-yl]-1,3-dimethyl-pyridin-2-one], which IC50 is on record?
Answer: The IC50 was 89 nM.

Question: `Cc1cc(-c2ccc3nnc(C4(c5ccc(Cl)cc5)CC4)n3c2)cn(C)c1=O` [Compound 15, 5-[3-[1-(4-chlorophenyl)cyclopropyl]-[1,2,4]triazolo[4,3-a]pyridin-6-yl]-1,3-dimethyl-pyridin-2-one] was tested. Which IC50 did it give?
Answer: Its IC50 is 250 nM.

Question: `Cc1ccc(C2(c3nnc4ccc(-c5cc(C)c(=O)n(C)c5)cn34)CC2)cc1` [Compound 16, 1,3-dimethyl-5-[3-[1-(p-tolyl)cyclopropyl]-[1,2,4]triazolo[4,3-a]pyridin-6-yl]pyridin-2-one] was tested. Which IC50 did it give?
Answer: Its IC50 is 226 nM.

Question: How did the IC50 turn out when `Cc1cc(-c2ccc3nnc(C(C)(C)c4ccc(Cl)cc4)n3c2)cn(C)c1=O` [Compound 17, 5-[3-[1-(4-chlorophenyl)-1-methyl-ethyl]-[1,2,4]triazolo[4,3-a]pyridin-6-yl]-1,3-dimethyl-pyridin-2-one] was run?
Answer: Its IC50 is 590 nM.

Question: `Cc1cc(-c2ccc3nnc(C4(c5ccc(Cl)cc5)CCC4)n3c2)cn(C)c1=O` [Compound 18, 5-[3-[1-(4-chlorophenyl)cyclobutyl]-[1,2,4]triazolo[4,3-a]pyridin-6-yl]-1,3-dimethyl-pyridin-2-one] was tested. Which IC50 did it give?
Answer: The IC50 was 563 nM.

Question: How did the IC50 turn out when `Cc1cccc(C2(c3nnc4ccc(-c5cc(C)c(=O)n(C)c5)cn34)CC2)c1` [Compound 19, 1,3-dimethyl-5-[3-[1-(m-tolyl)cyclopropyl]-[1,2,4]triazolo[4,3-a]pyridin-6-yl]pyridin-2-one] was run?
Answer: Its IC50 is 88 nM.

Question: For `Cc1cc(-c2ccc3nnc(C4(c5cccc(C(F)(F)F)c5)CC4)n3c2)cn(C)c1=O` [Compound 20, 1,3-dimethyl-5-[3-[1-[3-(trifluoromethyl)phenyl]cyclopropyl][1,2,4]-triazolo[4,3-a]pyridin-6-yl]pyridin-2-one], which IC50 is on record?
Answer: The IC50 was 61 nM.

Question: Which IC50 does the source give for `Cc1cc(-c2ccc3nnc(C4(c5cccc(F)c5)CC4)n3c2)cn(C)c1=O` [Compound 21, 5-[3-[1-(3-fluorophenyl)cyclopropyl]-[1,2,4]triazolo[4,3-a]pyridin-6-yl]-1,3-dimethyl-pyridin-2-one] here?
Answer: The IC50 was 158 nM.

Question: Which IC50 does the source give for `Cc1cc(-c2ccc3nnc(C4(c5ccccc5)CCC4)n3c2)cn(C)c1=O` [Compound 22, 1,3-dimethyl-5-[3-(1-phenylcyclobutyl)-[1,2,4]triazolo[4,3-a]pyridin-6-yl]pyridin-2-one] here?
Answer: The IC50 was 74 nM.

Question: For `Cc1cc(-c2ccc3nnc(C4(c5ccccc5)CCCC4)n3c2)cn(C)c1=O` [Compound 23, 1,3-dimethyl-5-[3-(1-phenylcyclopentyl)-[1,2,4]triazolo[4,3-a]pyridin-6-yl]pyridin-2-one], which IC50 is on record?
Answer: The IC50 was 85 nM.

Question: For `Cc1cc(-c2ccc3nnc(C(C)(C)c4cccc(Cl)c4)n3c2)cn(C)c1=O` [Compound 24, 5-[3-[1-(3-chlorophenyl)-1-methyl-ethyl]-[1,2,4]triazolo[4,3-a]pyridin-6-yl]-1,3-dimethyl-pyridin-2-one], which IC50 is on record?
Answer: The IC50 was 90 nM.

Question: How did the IC50 turn out when `Cc1cc(-c2ccc3nnc(C4(c5ccccc5)CCCCC4)n3c2)cn(C)c1=O` [Compound 25, 1,3-dimethyl-5-[3-(1-phenylcyclohexyl)-[1,2,4]triazolo[4,3-a]pyridin-6-yl]pyridin-2-one] was run?
Answer: Its IC50 is 54 nM.

Question: How did the IC50 turn out when `Cc1cc(-c2ccc3nnc(CCc4ccccc4)n3c2)cn(C)c1=O` [Compound 26, 1,3-dimethyl-5-[3-(2-phenylethyl)-[1,2,4]triazolo[4,3-a]pyridin-6-yl]pyridin-2-one] was run?
Answer: Its IC50 is 835 nM.

Question: How did the IC50 turn out when `Cc1cc(-c2ccc3nnc(C(C)(C)c4ccccc4)n3c2)cn(C)c1=O` [Compound 27, 1,3-dimethyl-5-[3-(1-methyl-1-phenyl-ethyl)-[1,2,4]triazolo[4,3-a]-pyridin-6-yl]pyridin-2-one] was run?
Answer: The IC50 was 227 nM.
